Test results from publication PMC6516726 (ACS Catalysis, 2018).
Read-outs that look alike come from different tables or passages of the source.

Tests used:
[1] = target: WT PETNR (Enterobacter cloacae, UniProt P71278); experiment: Stopped-flow FMN reduction (reductive half-reaction, hydride transfer) of WT PETNR by coenzyme; details: for kobs1: 10 mM NADPH or 25 mM NADH, pH 7.0
[2] = target: L25A PETNR (Enterobacter cloacae, UniProt P71278, L26A); details: for kobs1 / A2 (amplitude of kobs2 out of total absorbance change) / kobs2: 10 mM NADPH or 25 mM NADH, pH 7.0
[3] = target: L25I PETNR (Enterobacter cloacae, UniProt P71278, L26I); details: for kobs1: 10 mM NADPH or 25 mM NADH, pH 7.0
[4] = T0 = 298 K, fit of kobs1 (5–40 °C) to eq 1
[5] = deuterated minus protiated coenzyme, T0 = 298 K

Sequence of WT PETNR (P71278 entry or part of it): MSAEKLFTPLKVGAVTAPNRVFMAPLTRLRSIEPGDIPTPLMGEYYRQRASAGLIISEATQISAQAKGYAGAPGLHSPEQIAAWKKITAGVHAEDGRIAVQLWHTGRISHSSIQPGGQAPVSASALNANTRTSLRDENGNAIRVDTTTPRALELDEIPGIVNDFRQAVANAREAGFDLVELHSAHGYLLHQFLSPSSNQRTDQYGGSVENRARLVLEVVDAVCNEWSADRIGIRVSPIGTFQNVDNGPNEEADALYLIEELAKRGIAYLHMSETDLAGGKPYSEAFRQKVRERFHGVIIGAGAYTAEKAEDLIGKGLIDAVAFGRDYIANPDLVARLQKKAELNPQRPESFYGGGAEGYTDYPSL
Sequence of L25I PETNR (P71278 entry or part of it L26I): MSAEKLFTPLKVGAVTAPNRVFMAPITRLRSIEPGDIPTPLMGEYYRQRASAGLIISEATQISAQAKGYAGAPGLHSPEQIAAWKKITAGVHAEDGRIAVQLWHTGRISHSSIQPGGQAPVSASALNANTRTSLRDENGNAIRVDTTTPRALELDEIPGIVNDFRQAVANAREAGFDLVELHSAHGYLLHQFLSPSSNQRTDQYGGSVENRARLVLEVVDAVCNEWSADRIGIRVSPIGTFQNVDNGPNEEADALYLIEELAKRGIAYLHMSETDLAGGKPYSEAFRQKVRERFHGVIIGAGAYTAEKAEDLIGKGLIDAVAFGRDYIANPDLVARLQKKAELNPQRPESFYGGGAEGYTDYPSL
Sequence of L25A PETNR (P71278 entry or part of it L26A): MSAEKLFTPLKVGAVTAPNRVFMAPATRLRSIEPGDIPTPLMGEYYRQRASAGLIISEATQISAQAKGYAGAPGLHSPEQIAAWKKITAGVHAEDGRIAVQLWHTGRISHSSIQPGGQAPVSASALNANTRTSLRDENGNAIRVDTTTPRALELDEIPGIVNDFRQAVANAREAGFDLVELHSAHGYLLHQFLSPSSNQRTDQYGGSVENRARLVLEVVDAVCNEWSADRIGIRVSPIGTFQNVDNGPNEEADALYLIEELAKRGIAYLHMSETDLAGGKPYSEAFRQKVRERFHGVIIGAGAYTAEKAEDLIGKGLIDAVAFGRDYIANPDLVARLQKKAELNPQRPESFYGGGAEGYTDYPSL

[2H][C@@H]1C=CN([C@@H]2O[C@H](COP(=O)(O)OP(=O)(O)OC[C@H]3O[C@@H](n4cnc5c(N)ncnc54)[C@H](O)[C@@H]3O)[C@@H](O)[C@H]2O)C=C1C(N)=O [(R)-[4-^2H]-NADH]
kobs1 ([1]; 5 °C): 0.091 ± 0.001 s⁻¹
kobs1 ([1]; 15 °C): 0.156 ± 0.001 s⁻¹
kobs1 ([1]; 20 °C): 0.204 ± 0.002 s⁻¹
kobs1 ([1]; 25 °C): 0.274 ± 0.001 s⁻¹
kobs1 ([1]; 30 °C): 0.366 ± 0.002 s⁻¹
kobs1 ([1]; 35 °C): 0.499 ± 0.011 s⁻¹
kobs1 ([1]; 40 °C): 0.673 ± 0.005 s⁻¹
ΔCp^⧧ [1, 4]: 0.46 ± 0.02 kJ mol^–1 K^–1
ΔHT0^⧧ [1, 4]: 40.3 ± 0.1 kJ mol^–1
ΔST0^⧧ [1, 4]: –120.4 ± 0.5 J mol^–1 K^–1
Isotope Effect on ΔCp^⧧ [1, 5]: 0.07 ± 0.04 kJ mol^–1 K^–1
Isotope Effect on ΔHT0^⧧ (ΔΔHT0^⧧) [1, 5]: 4.9 ± 0.2 kJ mol^–1
Isotope Effect on ΔST0^⧧ [1, 5]: 0.1 ± 0.7 J mol^–1 K^–1
kobs1 ([2]; 5 °C): 0.162 ± 0.002 s⁻¹
kobs1 ([2]; 10 °C): 0.211 ± 0.002 s⁻¹
kobs1 ([2]; 15 °C): 0.275 ± 0.004 s⁻¹
kobs1 ([2]; 20 °C): 0.360 ± 0.004 s⁻¹
kobs1 ([2]; 25 °C): 0.495 ± 0.002 s⁻¹
kobs1 ([2]; 30 °C): 0.612 ± 0.042 s⁻¹
A2 (amplitude of kobs2 out of total absorbance change) ([2]; 35 °C): 15.60 ± 2.69%
kobs1 ([2]; 35 °C): 0.885 ± 0.018 s⁻¹
kobs2 ([2]; 35 °C): 0.11 ± 0.03 s⁻¹
A2 (amplitude of kobs2 out of total absorbance change) ([2]; 40 °C): 34.60 ± 0.91%
kobs1 ([2]; 40 °C): 1.070 ± 0.054 s⁻¹
kobs2 ([2]; 40 °C): 0.17 ± 0.01 s⁻¹
ΔCp^⧧ [2, 4]: 0.42 ± 0.14 kJ mol^–1 K^–1
ΔHT0^⧧ [2, 4]: 40.3 ± 1.1 kJ mol^–1
ΔST0^⧧ [2, 4]: –115.7 ± 3.8 J mol^–1 K^–1
Isotope Effect on ΔCp^⧧ [2, 5]: 0.13 ± 0.15 kJ mol^–1 K^–1
Isotope Effect on ΔHT0^⧧ [2, 5]: 6.6 ± 1.2 kJ mol^–1
Isotope Effect on ΔST0^⧧ [2, 5]: 6.4 ± 4.2 J mol^–1 K^–1
kobs1 ([3]; 5 °C): 0.062 ± 0.001 s⁻¹
kobs1 ([3]; 10 °C): 0.083 ± 0.001 s⁻¹
kobs1 ([3]; 20 °C): 0.160 ± 0.001 s⁻¹
kobs1 ([3]; 25 °C): 0.223 ± 0.003 s⁻¹
kobs1 ([3]; 30 °C): 0.306 ± 0.005 s⁻¹
kobs1 ([3]; 35 °C): 0.418 ± 0.001 s⁻¹
kobs1 ([3]; 40 °C): 0.604 ± 0.066 s⁻¹
ΔCp^⧧ [3, 4]: 0.30 ± 0.07 kJ mol^–1 K^–1
ΔHT0^⧧ [3, 4]: 44.9 ± 0.2 kJ mol^–1
ΔST0^⧧ [3, 4]: –106.8 ± 0.8 J mol^–1 K^–1
Isotope Effect on ΔCp^⧧ [3, 5]: –0.03 ± 0.19 kJ mol^–1 K^–1
Isotope Effect on ΔHT0^⧧ [3, 5]: 2.3 ± 1.8 kJ mol^–1
Isotope Effect on ΔST0^⧧ [3, 5]: –9.2 ± 6.0 J mol^–1 K^–1
